Results taken from patent publication US9862680B2, “Peripherally substituted monocyclic beta-lactams” (University of Notre Dame du Lac, priority 2016, dated 2018).

Key:
A. Baumannii ATCC 17961 = experiment: Agar diffusion assay (modified Kirby-Bauer); assay type: cell-based; details: 50 μL in 9.0 mm well, P unclear, V very unclear zone, * slightly misshapen zone; for Zone of Growth Inhibition: 2 mM solution
Description: (§1) Antibacterial activity of the compounds was determined by a modified Kirby-Bauer^27-28 agar-diffusion assay. Overnight cultures of test organisms were grown in LB broth for 18-24h and standard suspensions of […] were prepared in saline solution (0.9% NaCl) according to a 0.5 BaSO4 McFarland Standard. This standardized suspension (0.1 mL) was added to 34 mL of sterile, Mueller Hinton No. 2 agar tempered to 47-50° C. After gentle mixing, the inoculated agar media was poured into a sterile plastic petri dish (145 mm×20 mm) and allowed to solidify near a flame with the lid cracked for 30 min. Wells of 9.0 mm diameter were cut from the petri dish agar and filled with exactly 50 μL of the test sample solution. For studies using mixtures of compounds, both test compounds were diluted to equal concentrations and 50 μL of the mixed compound solution was added to the cut well. The petri dish was incubated at 37° C. for 18-24 h and the inhibition zone diameters were measured (mm) with an electronic caliper after 24-48 h.
(§2) All compound-containing solutions were prepared by first making a 20 mM solution of the compound in DMSO and then diluting that solution 10-fold with MeOH to give the final 2 mM solution used in the assay.
(§3) Plates were incubated after inoculation at 37° C. for 20 hours. Plates were photographed after 1 day. M. vaccae required a longer incubation time, 48 hours, and was photographed after 3 days.

B. Dolosa AU 0018 = experiment: Agar diffusion assay (modified Kirby-Bauer); assay type: cell-based; details: 2 mM solution, 50 μL in 9.0 mm well, P unclear, V very unclear zone, * slightly misshapen zone; for zone of inhibition at 2000 µM: Burkholderia dolosa, read-out: Zone of Growth Inhibition
Description: as §1, §2, §3

B. Subtilis ATCC 6633 = experiment: Agar diffusion assay (modified Kirby-Bauer); assay type: cell-based; details: 50 μL in 9.0 mm well, P unclear, V very unclear zone, * slightly misshapen zone; for Zone of Growth Inhibition: 2 mM solution
Description: as §1, §2, §3

E. Coli DC0 = experiment: Agar diffusion assay (modified Kirby-Bauer); assay type: cell-based; details: 2 mM solution, 50 μL in 9.0 mm well, P unclear, V very unclear zone, * slightly misshapen zone; for zone of inhibition at 2000 µM: Escherichia coli, read-out: Zone of Growth Inhibition
Description: as §1, §2, §3

E. Coli DC2 = experiment: Agar diffusion assay (modified Kirby-Bauer); assay type: cell-based
Description: as §1, §2, §3

M. Luteus ATCC 10240 = experiment: Agar diffusion assay (modified Kirby-Bauer); assay type: cell-based
Description: as §1, §2, §3

M. Vaccae IMET 10670 = experiment: Agar diffusion assay (modified Kirby-Bauer); assay type: cell-based; details: 2 mM solution, 50 μL in 9.0 mm well, 48 hours incubation, P unclear, V very unclear zone, * slightly misshapen zone; for zone of inhibition at 2000 µM: Mycolicibacterium vaccae, read-out: Zone of Growth Inhibition
Description: as §1, §2, §3

P. Aeruginosa K799/61 = experiment: Agar diffusion assay (modified Kirby-Bauer); assay type: cell-based; details: for Zone of Growth Inhibition: P. Aeruginosa K799/61 (permeability mutant), 2 mM solution, 50 μL in 9.0 mm well, P unclear, V very unclear zone, * slightly misshapen zone
Description: as §1, §2, §3

P. Aeruginosa K799/wt = experiment: Agar diffusion assay (modified Kirby-Bauer); assay type: cell-based; details: P. Aeruginosa K799/wt (wild type), 2 mM solution, 50 μL in 9.0 mm well, P unclear, V very unclear zone, * slightly misshapen zone
Description: as §1, §2, §3

S. Aureus SG511 = experiment: Agar diffusion assay (modified Kirby-Bauer); assay type: cell-based; details: 2 mM solution, 50 μL in 9.0 mm well, P unclear, V very unclear zone, * slightly misshapen zone; for zone of inhibition at 2000 µM: Staphylococcus aureus, read-out: Zone of Growth Inhibition
Description: as §1, §2, §3

AmpC = experiment: β-lactamase inhibition, Ki by enzyme kinetics (nitrocefin); assay type: biochemical; details: class C
Description: (§4) The enzymes KPC-2, Oxa-48, AmpC and NDM-1 were purchased from Emerald Bioscience and the enzymes CTX-14 and SHV-12 were expressed and purified from E. coli at Rempex pharmaceutical (San Diego, Calif.).
(§5) To the first row of a 2-mL deep 96-well block was added 1 mL of 50 mM sodium phosphate buffer at pH 7 with 0.1 mg/mL BSA (bovine serum albumin). To the first row was added an appropriate amount of a 10 mg/mL solution of the compound to be tested to make a 640 μM (4×) solution. Each of the other wells in the 96-well block were charged with 750 μL of the aforementioned buffer. The rows were then repeatedly diluted 1:3 so that the final concentrations of the individual 96-well plates would range in concentrations from 160 μM to 3 nM (8 dilutions). The master block was then used to add 50 pt to each corresponding well in the 96-well flat-bottom plate. An additional 50 of buffer was added to each well. Once the plates were prepared, 50 μL of the enzyme to be tested against were added in buffer to each well [KPC-2 (0.147 mg/mL), CTX-M-14 (0.102 mg/mL), […] (0.331 mg/mL), AmpC (0.699 mg/mL), SHV-12 (0.111 mg/mL), NDM-1 (0.110 mg/mL)]. The plates were incubated at rt for 10 min before 50 μL. of an appropriate indicator were added to each well and the optical density at 495 nm was measured over time. For each enzyme, other than NDM-1, nitrocefin was used. Nitrocefin (10 μM for SHV-12, 50 μM for the other enzymes), was appropriate because when cleaved by a β-lactamase, the color changes from yellow to red. For NDM-1, imipenem (10 μM) was the indicator of choice. Rather than observe the growing presence of optical density at 495 nm, as with nitrocefin, the disappearance of imipenem was monitored. The inhibition curves were monitored and used to perform enzyme kinetics according to Waley to determine the Ki (μM) of each compound against the β-lactamases screened.

CTX-M-14 = target: T1, CTX-M-14 (Escherichia coli, UniProt Q9L5C7); experiment: as above; assay type: biochemical; details: CTX-M-14, class A
T1 construct: host or cells: E. coli
Description: as §4, §5

KPC-2 = target: T2, KPC-2 (Klebsiella pneumoniae, UniProt Q9F663); experiment: as above; assay type: biochemical; details: KPC-2, class A
T2 construct: purchased Emerald Bioscience
Description: as §4, §5

Oxa-48 = target: T3, Oxa-48 (Klebsiella pneumoniae, UniProt Q6XEC0); experiment: as above; assay type: biochemical; details: Oxa-48, class D
T3 construct: purchased Emerald Bioscience
Description: as §4, §5

SHV-12 = target: T4, SHV-12 (Klebsiella pneumoniae, UniProt P0AD64, E235K/G234S/L31Q); experiment: as above; assay type: biochemical; details: SHV-12, class A
T4 construct: host or cells: E. coli
Description: as §4, §5

PAM 2035 = experiment: β-lactamase inhibition, Ki by enzyme kinetics; assay type: biochemical; details: PAM 2035, class C
NDM-1 = target: T5, NDM-1 (Klebsiella pneumoniae, UniProt C7C422); experiment: β-lactamase inhibition, Ki by enzyme kinetics (imipenem); assay type: biochemical; details: NDM-1, class B
T5 construct: purchased Emerald Bioscience
Description: as §4, §5

[1] = system: panel of Gram-positive and Gram-negative bacteria; experiment: Kirby-Bauer agar diffusion assays, results in words; assay type: cell-based
Description: as §1, §2, §3

[2] = system: panel of Gram-positive and Gram-negative bacteria; experiment: MIC determination; assay type: cell-based; details: same panel of Gram-positive and Gram-negative bacteria, all values
[3] = E. Coli DC2, 2 mM solution, 50 μL in 9.0 mm well, P unclear, V very unclear zone, * slightly misshapen zone
[4] = M. Luteus ATCC 10240, 2 mM solution, 50 μL in 9.0 mm well, P unclear, V very unclear zone, * slightly misshapen zone
[5] = Pseudomonas aeruginosa, read-out: Zone of Growth Inhibition

T5 sequence (C7C422 29-270 limits assumed): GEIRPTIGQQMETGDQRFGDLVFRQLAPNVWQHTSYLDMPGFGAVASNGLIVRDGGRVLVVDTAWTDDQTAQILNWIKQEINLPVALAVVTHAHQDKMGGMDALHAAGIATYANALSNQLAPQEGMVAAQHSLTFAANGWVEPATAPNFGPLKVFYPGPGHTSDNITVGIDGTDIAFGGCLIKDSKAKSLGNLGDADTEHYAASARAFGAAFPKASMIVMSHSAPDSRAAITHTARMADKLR
T1 sequence (Q9L5C7 entry or part of it): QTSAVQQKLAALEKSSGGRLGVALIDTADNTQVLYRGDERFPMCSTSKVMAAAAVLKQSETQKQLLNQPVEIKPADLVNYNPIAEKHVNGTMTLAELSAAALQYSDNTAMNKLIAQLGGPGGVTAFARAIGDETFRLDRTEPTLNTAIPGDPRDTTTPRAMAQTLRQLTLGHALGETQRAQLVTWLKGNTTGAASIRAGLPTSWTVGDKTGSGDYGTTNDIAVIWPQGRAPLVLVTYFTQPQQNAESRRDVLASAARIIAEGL
T4 sequence (P0AD64 22-286 L31Q/G234S/E235K): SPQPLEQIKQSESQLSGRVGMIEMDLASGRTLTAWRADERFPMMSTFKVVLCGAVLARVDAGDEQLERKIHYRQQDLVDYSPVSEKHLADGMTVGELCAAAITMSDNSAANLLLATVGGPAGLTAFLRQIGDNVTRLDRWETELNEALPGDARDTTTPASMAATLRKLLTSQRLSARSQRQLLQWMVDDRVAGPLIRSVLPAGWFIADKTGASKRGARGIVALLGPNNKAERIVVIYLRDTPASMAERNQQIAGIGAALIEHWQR
T2 sequence (Q9F663 25-293 limits assumed): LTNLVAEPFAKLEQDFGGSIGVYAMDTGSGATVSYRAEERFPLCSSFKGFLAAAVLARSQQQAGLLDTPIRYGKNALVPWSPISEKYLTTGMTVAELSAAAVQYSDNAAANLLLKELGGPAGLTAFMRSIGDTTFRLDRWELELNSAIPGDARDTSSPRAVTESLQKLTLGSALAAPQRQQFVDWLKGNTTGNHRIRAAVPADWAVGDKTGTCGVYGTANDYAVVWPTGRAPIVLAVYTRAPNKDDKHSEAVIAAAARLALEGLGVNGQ
T3 sequence (Q6XEC0 23-265 limits assumed): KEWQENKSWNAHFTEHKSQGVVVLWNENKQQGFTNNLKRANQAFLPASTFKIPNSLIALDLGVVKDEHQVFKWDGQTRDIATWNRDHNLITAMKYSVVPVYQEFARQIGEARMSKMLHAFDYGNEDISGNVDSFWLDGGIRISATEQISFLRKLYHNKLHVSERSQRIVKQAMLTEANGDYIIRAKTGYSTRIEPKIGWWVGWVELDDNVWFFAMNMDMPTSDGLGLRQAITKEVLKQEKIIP

Row | SMILES | Zone of Growth Inhibition (A. Baumannii ATCC 17961) | Zone of Growth Inhibition (B. Dolosa AU 0018) [mm] | Zone of Growth Inhibition (B. Subtilis ATCC 6633) | Zone of Growth Inhibition (E. Coli DC0) [mm] | Zone of Growth Inhibition (E. Coli DC2; [3]) | Zone of Growth Inhibition (M. Luteus ATCC 10240; [4]) | Zone of Growth Inhibition (M. Vaccae IMET 10670) | Zone of Growth Inhibition (P. Aeruginosa K799/61) | Zone of Growth Inhibition (P. Aeruginosa K799/wt) | Zone of Growth Inhibition (S. Aureus SG511) | also measured
1 | O=C1CC(CBr)N1OS(=O)(=O)c1ccc([N+](=O)[O-])cc1[N+](=O)[O-] (stereo not drawn) [Compound 61f] | 16V | 0 | 22 mm | 0 | 16P | 18P | 28 mm | 0 mm | 0 mm | 21P | 
2 | O=C1CC(CBr)N1OS(=O)(=O)c1ccc([N+](=O)[O-])cc1 (stereo not drawn) [Compound 61e] | 0 mm | 0 |  | 0 | 0 mm | 0 mm | 0 mm | 12.6* mm | 0 mm | 0 mm | 
3 | CN(C)c1cccc2c(S(=O)(=O)ON3C(=O)CC3CBr)cccc12 (stereo not drawn) [Compound 61h] | 0 mm | 0 |  | 0 | 0 mm |  |  | 0 mm | 0 mm | 15* mm | 
4 | CC(C)c1cc(C(C)C)c(S(=O)(=O)ON2C(=O)CC2CBr)c(C(C)C)c1 (stereo not drawn) [Compound 61d] | 0 mm | 0 |  | 0 | 0 mm |  |  | 0 mm | 0 mm |  | Ki (AmpC): > 160 µM; Ki (CTX-M-14): > 160 µM; Ki (KPC-2): > 160 µM; Ki (Oxa-48): > 160 µM; Ki (SHV-12): > 160 µM; Ki (PAM 2035): > 160 µM; Ki (NDM-1): > 160 µM
5 | Cc1ccc(S(=O)(=O)ON2C(=O)CC2CBr)cc1 (stereo not drawn) [Compound 61g] | 13.5 mm | 0 | 0 mm | 0 | 0 mm | 16P | 19V | 0 mm | 0 mm | 18V | 
6 | CO/N=C(\C(=O)N[C@@H]1C(=O)N(S(=O)(=O)[O-])[C@H]1CSCCN)c1cnc(N)s1.[K+] [Compound 44] |  |  | 16V |  |  | 14 s |  |  |  |  | zone of inhibition at 2000 µM (B. Dolosa AU 0018): 0 mm; zone of inhibition at 2000 µM (E. Coli DC0): 23 mm; antibacterial activity (E. Coli DC2; against E. coli DC2, called wild type in the text): active; zone of inhibition at 2000 µM (M. Vaccae IMET 10670): 0 mm; zone of inhibition at 2000 µM (P. Aeruginosa K799/61; [5]): 14 mm; zone of inhibition at 2000 µM (P. Aeruginosa K799/wt; [5]): 0 mm; zone of inhibition at 2000 µM (S. Aureus SG511): 0 mm; antibacterial activity ([1]; against B. subtilis, M. luteus, A. baumannii and the permeability mutant strains of P. aeruginosa and E. coli): moderately active; MIC [2]: > 50 µM
7 | COC(=O)CSCC1C(NC(=O)Cc2ccccc2)C(=O)N1S(=O)(=O)[O-].[K+] (racemic) [Compound 29] |  |  |  |  |  |  |  |  |  |  | antibacterial activity ([1]; agar diffusion, overall): did not show any activity
8 | CO/N=C(\C(=O)N[C@@H]1C(=O)N(S(=O)(=O)[O-])[C@H]1CSCCNC(=O)OC(C)(C)C)c1cnc(N)s1.[K+] [Compound 43] |  |  |  |  |  |  |  |  | 0ppt |  | zone of inhibition at 2000 µM (A. Baumannii ATCC 17961; Acinetobacter baumannii, ATCC17961, 2 mM solution, read-out: Zone of Growth Inhibition): 0 mm; zone of inhibition at 2000 µM (B. Dolosa AU 0018): 0 mm; zone of inhibition at 2000 µM (B. Subtilis ATCC 6633; Bacillus subtilis, ATCC6633, 2 mM solution, read-out: Zone of Growth Inhibition): 18 mm; zone of inhibition at 2000 µM (E. Coli DC0): 0 mm; zone of inhibition at 2000 µM (E. Coli DC2; Escherichia coli, E. Coli DC2, 2 mM solution, 50 μL in 9.0 mm well, P unclear, V very unclear zone, * slightly misshapen zone, read-out: Zone of Growth Inhibition): 29 mm; zone of inhibition at 2000 µM (M. Luteus ATCC 10240; Micrococcus luteus, ATCC10240, M. Luteus ATCC 10240, 2 mM solution, 50 μL in 9.0 mm well, P unclear, V very unclear zone, * slightly misshapen zone, read-out: Zone of Growth Inhibition): 0 mm; zone of inhibition at 2000 µM (M. Vaccae IMET 10670): 0 mm; zone of inhibition at 2000 µM (S. Aureus SG511): 0 mm; antibacterial activity ([1]; against B. subtilis and the permeability mutant forms of P. aeruginosa and E. coli): moderate activity; antibacterial activity ([1]; corresponding wild strains of P. aeruginosa and E. coli): inactivity; MIC [2]: > 50 µM
9 | CC(C)(ON=C(C(=O)NC1C(=O)N(S(=O)(=O)[O-])C1CSCCN)c1cnc(N)s1)C(=O)O.[K+] (racemic) [Compound 48] | 12P | 15 | 0 mm | 26 | 28 mm | 26P | 0 mm |  | 18P | 0 mm | antibacterial activity (M. Luteus ATCC 10240; on the Gram-positive M. luteus): very interesting activity; antibacterial activity against Gram-negative bacteria ([1]; agar diffusion, Gram-negative bacteria): very interesting activity
